Laboratory results taken from article PMC5415745, “Drug-transporter mediated interactions between anthelminthic and antiretroviral drugs across the Caco-2 cell monolayers” (BMC Pharmacology & Toxicology, 2017).
Several values for one entry are separate records, joined by “and”; a condition that tells them apart may be missing. Equal values may be shown once. Entries after “also recorded” stand apart in the source; their conditions may differ.

How the values were obtained:
[1] = Bidirectional (AP→BL, BL→AP) drug transport across Caco-2 cell monolayers in transwells: cumulative transport, Papp, efflux ratio; HPLC or radiolabeled assay; details: human
Description: (§1) The monolayers used were of between passage 20 and 65 after 15 days of growth. Each experiment was performed in duplicate using two six well-transwell culture plates. The cells were trypsinized as described earlier, and after centrifugation the pellet re-suspended in fresh DMEM (+15%), and the cells counted using a cell counter. A volume of DMEM was added enough to give a cell count of 2 × 10^6 cells per ml, and cells were seeded on the transwell culture plates at a density of 2 × 10^4 cells/cm^2 (~ 100,000 cells per well, since insert membrane growth area = 4.67 cm^2). The plates were then incubated at 37°C and 10% CO2 in a humidified chamber and the media changed every 2-3 days, by aspirating using a suction pump and replacing with an equal volume of DMEM. Transport experiments were conducted 15 to 20 days after seeding. The TEER across the cell monolayers was monitored using a Millicell-ERS in order to assess cell monolayer integrity and the monolayers considered appropriate for the experiment when the TEER values were typically above 500 cm^2 [49, 70].
(§2) Prior to transport studies, each monolayer was washed and equilibrated with the transport medium (DMEM without FBS). The medium was removed from all AP and BL compartments of the transwells and replaced with 2 ml of the transport medium (DMEM alone), to both compartments and equilibrated for 1 h (37°C, 10% CO2 incubator), after which the TEER was re-assessed and labeled. The medium was then removed from both compartments and replaced with an equal volume of pre-warmed medium containing the compound of interest at the appropriate concentration. For the AP → BL transport, 2 ml of medium containing the desired drug was placed in the AP chamber and 2 ml of the medium alone in the BL chamber, whereas 2 ml of medium containing the drug was placed in the BL and 2 ml of medium on the AP chamber for the BL → AP transport [71]. The effect of the second drug was then assessed by adding the medium containing the original drug and the drug under study to the AP side for AP → BL transport with the medium containing the original drug alone in the BL chamber, and vice-versa for the BL → AP transport. Transport in each direction was done in triplicate. The transwell plates were then incubated (37°C, 10% CO2 incubator), and 100μl of the samples from the AP and BL compartments were taken at 60, 120, 180 and 240 min and quantified either by HPLC method described earlier [45], or by the use of a liquid scintillating counter depending on the drug under study. The HPLC method involved liquid - liquid extraction followed by ultra-high performance liquid chromatography using a Hypurity C18 column and ultraviolet detection set at a wavelength of 215 nm. The mobile phase consisted of ammonium formate, acetonitrile and methanol (57:38:5 v/v). Separation was facilitated via isocratic elution at a flow rate of 1.5 ml/min. For HPLC assays, the concentration used for each drug was 20μg/ml. The concentrations that offered the best detection were selected for radiolabeled assay. […] The integrity of the CCM during the experiment was monitored by measuring the TEER at the beginning (0 min) and the end of the experiment (240min).
(§3) The results were expressed as apparent permeability coefficient (Papp, unit: cms^-1), the amount of compound transported per second. Papp values were calculated for both AP to BL (PappAtoB), and BL to AP (PappBtoA) movement of the compound. Papp was calculated using the following equation [52, 72]: • Papp (cm/s) = (dQ/dt) x (1/(ACO) • dQ/dt = Steady-state flux (dpm s^-1 or μmol s^-1) • A = Surface area of the filter (cm^2) • CO = Initial concentration in the donor chamber (dpm litre ^-1 or μM)
(§4) The quotient of secretory permeability and absorptive permeability (PappBL-AP/PappAP-BL) constitutes the efflux ratio, while the reverse (PappAP-BL/PappBL-AP) is the uptake ratio [71].

[2] = tested on: Caco-2 cell monolayers; assay: as above
Description: as §1, §2, §3, §4

[3] = [3H] NVP alone, 60 min, individual experiments 1-3
[4] = [3H] NVP alone, 60 min, mean, n=3
[5] = [3H] NVP alone, 120 min, individual experiments 1-3
[6] = [3H] NVP alone, 120 min, mean, n=3
[7] = [3H] NVP alone, 180 min, individual experiments 1-3
[8] = [3H] NVP alone, 180 min, mean, n=3
[9] = [3H] NVP alone, 240 min, individual experiments 1-3
[10] = [3H] NVP alone, 240 min, mean, n=3
[11] = [3H] NVP alone, after 60 min, samples 1-3
[12] = labelled drug is the interacting drug
[13] = 120 min, individual samples 1-3
[14] = 180 min, individual samples 1-3
[15] = 240 min, individual samples 1-3
[16] = IVM alone (SQV experiment), 60 min, mean
[17] = IVM alone (SQV experiment), 120 min, mean
[18] = IVM alone (SQV experiment), 120 min, samples 1-3
[19] = IVM alone (SQV experiment), 180 min, mean
[20] = IVM alone (SQV experiment), 180 min, samples 1-3
[21] = IVM alone (SQV experiment), 240 min, mean
[22] = IVM alone (SQV experiment), 240 min, samples 1-3
[23] = IVM alone (SQV experiment), after 60min, individual samples
[24] = IVM alone (SQV experiment), after 60min, mean
[25] = IVM alone, 60 min, individual experiments 1-3
[26] = IVM alone, 120 min, individual experiments 1-3
[27] = IVM alone, 180 min, individual experiments 1-3
[28] = IVM alone, 240 min, individual experiments 1-3
[29] = [3H] IVM alone, 60 min, individual experiments 1-3
[30] = [3H] IVM alone, 60 min, mean, n=3
[31] = [3H] IVM alone, 120 min, individual experiments 1-3
[32] = [3H] IVM alone, 120 min, mean, n=3
[33] = [3H] IVM alone, 180 min, individual experiments 1-3
[34] = [3H] IVM alone, 180 min, mean, n=3
[35] = [3H] IVM alone, 240 min, individual experiments 1-3
[36] = [3H] IVM alone, 240 min, mean, n=3
[37] = [3H] IVM alone, after 60 min, mean, n=3
[38] = [3H] IVM alone, after 60 min, samples 1-3
[39] = samples after 60min, individual samples 1-3, IVM alone
[40] = samples after 60min, mean n=3, IVM alone

Cc1ccnc2c1NC(=O)c1cccnc1N2C1CC1 [NVP, nevirapine]
efflux ratio at 60 min ([1]; Caco-2, Efflux ratio ER, [3H] NVP alone, after 60 min, samples 1-3): 1.03
Papp A→B at 60 min ([1]; Caco-2, Papp AP → BL, mean (n=3) after 60 min, drug A alone, or label 'A + B' = transport of A in presence of interacting drug B, concentrations per Table 1): 42.7 ×10⁻⁶ cm/s
Papp B→A at 60 min ([1]; Caco-2, Papp BL → AP, mean (n=3) after 60 min, drug A alone, or label 'A + B' = transport of A in presence of interacting drug B, concentrations per Table 1): 39.5 ×10⁻⁶ cm/s
Papp A→B at 60 min ([1]; Caco-2, PappAB Papp, [3H] NVP alone, after 60 min, samples 1-3): 52.9 ×10⁻⁶ cm/s
Papp B→A at 60 min ([1]; Caco-2, PappBA Papp, [3H] NVP alone, after 60 min, samples 1-3): 54.7 ×10⁻⁶ cm/s
Apical to basal transport [2, 3]: 78.8 pmol and 80.8 pmol and 79.4 pmol
Basal to apical transport [2, 3]: 59.7 pmol and 67.9 pmol and 77.2 pmol
Apical to basal transport Mean [2, 4]: 79.68 pmol
Basal to apical transport Mean [2, 4]: 68.27 pmol
Apical to basal transport [2, 5]: 111.5 pmol and 123.2 pmol and 109.9 pmol
Basal to apical transport [2, 5]: 81.9 pmol and 91.5 pmol and 105.1 pmol
Apical to basal transport Mean [2, 6]: 114.88 pmol
Basal to apical transport Mean [2, 6]: 92.84 pmol
Apical to basal transport [2, 7]: 116.3 pmol and 120.3 pmol and 122.0 pmol
Basal to apical transport [2, 7]: 92.9 pmol and 107.5 pmol and 118.9 pmol
Apical to basal transport Mean [2, 8]: 119.53 pmol
Basal to apical transport Mean [2, 8]: 106.41 pmol
Apical to basal transport [2, 9]: 123.9 pmol and 122.5 pmol and 120.2 pmol
Basal to apical transport [2, 9]: 98.8 pmol and 112.2 pmol and 132.2 pmol
Apical to basal transport Mean [2, 10]: 122.19 pmol
Basal to apical transport Mean [2, 10]: 114.39 pmol
Apical to basal transport Conc. Apical [2, 11]: 177.1 pmol and 196.6 pmol and 189.3 pmol
Basal to apical transport Conc. Basal [2, 11]: 129.9 pmol and 207.3 pmol and 202.9 pmol
Efflux ratio ER [2, 11]: 0.80
PappAB Papp [2, 11]: 40.3 ×10⁻⁶ cm/s and 34.9 ×10⁻⁶ cm/s
PappBA Papp [2, 11]: 32.1 ×10⁻⁶ cm/s and 31.7 ×10⁻⁶ cm/s
Effect on the transport of IVM [2, 12]: increased
Effect on the transport of PZQ [2, 12]: did not affect

CC[C@H](C)[C@H]1O[C@]2(CC[C@@H]1C)C[C@@H]1C[C@@H](C/C=C(\C)[C@@H](O[C@H]3C[C@H](OC)[C@@H](O[C@H]4C[C@H](OC)[C@@H](O)[C@H](C)O4)[C@H](C)O3)[C@@H](C)/C=C/C=C3\CO[C@@H]4[C@H](O)C(C)=C[C@@H](C(=O)O1)[C@]34O)O2 [IVM, ivermectin]
Apical to basal transport (cumulative, receiver) ([2]; 60 min, individual samples 1-3): 0.57 pmol and 0.44 pmol and 1.00 pmol
Basal to apical transport (cumulative, receiver) ([2]; 60 min, individual samples 1-3): 0.65 pmol and 0.55 pmol and 0.96 pmol
Apical to basal transport (cumulative, receiver), Mean ([2]; 60 min, mean n=3): 0.67 pmol
Basal to apical transport (cumulative, receiver), Mean ([2]; 60 min, mean n=3): 0.72 pmol
Apical to basal transport (cumulative, receiver) [2, 13]: 0.50 pmol and 0.61 pmol and 1.00 pmol
Basal to apical transport (cumulative, receiver) [2, 13]: 1.34 pmol and 1.05 pmol and 1.67 pmol
Apical to basal transport (cumulative, receiver), Mean ([2]; 120 min, mean n=3): 0.71 pmol
Apical to basal transport (cumulative, receiver) [2, 14]: 0.66 pmol and 0.77 pmol and 1.54 pmol
Basal to apical transport (cumulative, receiver) [2, 14]: 1.45 pmol and 1.96 pmol
Apical to basal transport (cumulative, receiver), Mean ([2]; 180 min, mean n=3): 0.99 pmol
Basal to apical transport (cumulative, receiver), Mean ([2]; 180 min, mean n=3): 1.63 pmol
Apical to basal transport (cumulative, receiver) [2, 15]: 0.96 pmol and 0.81 pmol and 1.30 pmol
Basal to apical transport (cumulative, receiver) [2, 15]: 2.52 pmol and 1.59 pmol and 2.27 pmol
Apical to basal transport (cumulative, receiver), Mean ([2]; 240 min, mean n=3): 1.03 pmol
Basal to apical transport (cumulative, receiver), Mean ([2]; 240 min, mean n=3): 2.13 pmol
Apical to basal transport Mean [2, 16]: 0.01145 pmol
Basal to apical transport Mean [2, 16]: 0.01169 pmol
Basal to apical transport ([2]; IVM alone (SQV experiment), 60 min, samples 1-3): 0.01229 pmol and 0.00926 pmol
Apical to basal transport Mean [2, 17]: 0.01592 pmol
Basal to apical transport Mean [2, 17]: 0.0179 pmol
Apical to basal transport [2, 18]: 0.01408 pmol and 0.02131 pmol and 0.01237 pmol
Basal to apical transport [2, 18]: 0.02106 pmol and 0.01584 pmol and 0.01678 pmol
Apical to basal transport Mean [2, 19]: 0.02075 pmol
Basal to apical transport Mean [2, 19]: 0.02575 pmol
Apical to basal transport [2, 20]: 0.02329 pmol and 0.01834 pmol and 0.02063 pmol
Basal to apical transport [2, 20]: 0.02626 pmol
Apical to basal transport Mean [2, 21]: 0.0256 pmol
Basal to apical transport Mean [2, 21]: 0.0353 pmol
Apical to basal transport [2, 22]: 0.02118 pmol and 0.03003 pmol and 0.0256 pmol
Basal to apical transport [2, 22]: 0.04523 pmol and 0.02414 pmol and 0.03653 pmol
Apical to basal transport Conc. Basal [2, 23]: 15.84 fmol and 11.06 fmol and 7.45 fmol
Basal to apical transport Conc. Apical [2, 23]: 13.53 fmol
PappAB [2, 23]: 10.74 10^6 cm/s and 7.18 10^6 cm/s and 4.31 10^6 cm/s
PappBA [2, 23]: 7.36 10^6 cm/s and 5.84 10^6 cm/s and 4.54 10^6 cm/s
PappAB Mean [2, 24]: 7.41 10^6 cm/s
PappBA Mean [2, 24]: 5.92 10^6 cm/s
Apical to basal transport [2, 25]: 8.30 pmol and 7.46 pmol and 8.35 pmol
Basal to apical transport [2, 25]: 15.75 pmol and 21.16 pmol
Apical to basal transport Mean ([2]; IVM alone, 60 min, mean, n=3): 8.04 pmol
Basal to apical transport Mean ([2]; IVM alone, 60 min, mean, n=3): 17.70 pmol
Apical to basal transport [2, 26]: 17.04 pmol and 10.98 pmol and 9.22 pmol
Basal to apical transport [2, 26]: 21.40 pmol and 27.21 pmol and 31.37 pmol
Apical to basal transport Mean ([2]; IVM alone, 120 min, mean, n=3): 12.41 pmol
Basal to apical transport Mean ([2]; IVM alone, 120 min, mean, n=3): 26.66 pmol
Apical to basal transport [2, 27]: 20.27 pmol and 13.19 pmol and 16.36 pmol
Basal to apical transport [2, 27]: 26.81 pmol and 40.70 pmol
Apical to basal transport Mean ([2]; IVM alone, 180 min, mean, n=3): 16.61 pmol
Basal to apical transport Mean ([2]; IVM alone, 180 min, mean, n=3): 31.01 pmol
Apical to basal transport [2, 28]: 16.26 pmol and 22.17 pmol and 13.75 pmol
Basal to apical transport [2, 28]: 35.20 pmol and 45.80 pmol
Apical to basal transport Mean ([2]; IVM alone, 240 min, mean, n=3): 17.39 pmol
Basal to apical transport Mean ([2]; IVM alone, 240 min, mean, n=3): 37.70 pmol
Apical to basal transport [2, 29]: 0.01435 pmol and 0.01486 pmol and 0.01544 pmol
Basal to apical transport [2, 29]: 0.01286 pmol and 0.01268 pmol
Apical to basal transport Mean [2, 30]: 0.01488 pmol
Basal to apical transport Mean [2, 30]: 0.01303 pmol
Apical to basal transport [2, 31]: 0.0208 pmol and 0.02034 pmol and 0.02175 pmol
Basal to apical transport [2, 31]: 0.01734 pmol and 0.01856 pmol and 0.01852 pmol
Apical to basal transport Mean [2, 32]: 0.02096 pmol
Basal to apical transport Mean [2, 32]: 0.01814 pmol
Apical to basal transport [2, 33]: 0.02572 pmol and 0.02395 pmol and 0.02543 pmol
Basal to apical transport [2, 33]: 0.01707 pmol and 0.0238 pmol and 0.03179 pmol
Apical to basal transport Mean [2, 34]: 0.02503 pmol
Basal to apical transport Mean [2, 34]: 0.02422 pmol
Apical to basal transport [2, 35]: 0.02516 pmol and 0.02638 pmol and 0.02306 pmol
Basal to apical transport [2, 35]: 0.0227 pmol and 0.02867 pmol and 0.0342 pmol
Apical to basal transport Mean [2, 36]: 0.02486 pmol
Basal to apical transport Mean [2, 36]: 0.02852 pmol
PappAB Mean [2, 37]: 14.06 10^6 cm/s
PappBA Mean [2, 37]: 11.32 10^6 cm/s
Apical to basal transport Conc. Apical [2, 38]: 0.10163 pmol and 0.1066 pmol and 0.10959 pmol
Basal to apical transport Conc. Apical [2, 38]: 13.56 fmol
Basal to apical transport Conc. Basal [2, 38]: 0.11067 pmol and 0.12653 pmol and 0.11199 pmol
PappAB Papp [2, 38]: 16.8 ×10⁻⁶ cm/s and 13.7 ×10⁻⁶ cm/s and 11.7 ×10⁻⁶ cm/s
PappBA Papp [2, 38]: 14.6 ×10⁻⁶ cm/s and 9.96 ×10⁻⁶ cm/s and 9.43 ×10⁻⁶ cm/s
Effect on the (efflux) transport of SQV [2, 12]: significantly inhibited
Effect on the efflux of EFV [2, 12]: increased; also recorded: marginally significant increase
Effect on the efflux transport of LPV [2, 12]: significantly inhibited; also recorded: eightfold inhibition
Effect on the transport of NVP [2, 12]: did not appear to significantly influence
PappAB Papp [2, 39]: 7.59 10^9 cm/s and 4.95 10^9 cm/s and 10.26 10^9 cm/s
PappBA Papp [2, 39]: 10.18 10^9 cm/s and 5.89 10^9 cm/s and 10.76 10^9 cm/s
PappAB Mean [2, 40]: 7.60 10^9 cm/s
PappBA Mean [2, 40]: 8.94 10^9 cm/s
